Reference: ChEMBL document CHEMBL4680085 (J Med Chem, 2016)
Active and inactive are the calls of the source. The rule behind the calls is not given here.

How the values were obtained:
Acetylcholinesterase [1] = target: Acetylcholinesterase (Electrophorus electricus, UniProt O42275); assay: Inhibition of Electrophorus electricus AChE pre-incubated for 10 mins before addition of acetylthiocholine iodide substrate and further incubated for 15 mins by Ellman's method
Acetylcholinesterase [2] = target: T1, Acetylcholinesterase (Homo sapiens, UniProt P22303); assay: Inhibition of AChE in human erythrocyte hemo-lyzates pre-incubated for 5 mins before addition of acetylthiocholine iodide substrate by Ellman's method; type: tissue-based
T1 sequence (P22303 whole entry): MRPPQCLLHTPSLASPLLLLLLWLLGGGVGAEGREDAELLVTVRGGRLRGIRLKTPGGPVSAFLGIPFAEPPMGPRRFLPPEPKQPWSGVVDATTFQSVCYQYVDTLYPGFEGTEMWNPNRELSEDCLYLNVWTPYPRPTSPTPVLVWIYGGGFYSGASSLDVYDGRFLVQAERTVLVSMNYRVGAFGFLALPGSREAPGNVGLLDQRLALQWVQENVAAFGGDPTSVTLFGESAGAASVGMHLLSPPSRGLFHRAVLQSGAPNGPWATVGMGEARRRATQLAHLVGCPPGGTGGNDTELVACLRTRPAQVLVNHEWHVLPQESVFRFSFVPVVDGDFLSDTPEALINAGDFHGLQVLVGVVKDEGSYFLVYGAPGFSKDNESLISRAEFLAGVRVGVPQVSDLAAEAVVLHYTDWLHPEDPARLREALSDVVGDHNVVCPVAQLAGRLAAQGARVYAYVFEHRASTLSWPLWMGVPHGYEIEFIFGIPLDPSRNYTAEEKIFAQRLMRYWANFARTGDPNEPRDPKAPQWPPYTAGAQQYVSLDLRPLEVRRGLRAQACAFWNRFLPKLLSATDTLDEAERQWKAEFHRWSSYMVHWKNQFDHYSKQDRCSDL

Cholinesterase [3] = target: T2, Cholinesterase (Homo sapiens, UniProt P06276); assay: Inhibition of BuChE in human erythrocyte hemo-lyzates pre-incubated for 5 mins before addition of butyrylthiocholine iodide substrate by Ellman's method; type: tissue-based
T2 sequence (P06276 whole entry): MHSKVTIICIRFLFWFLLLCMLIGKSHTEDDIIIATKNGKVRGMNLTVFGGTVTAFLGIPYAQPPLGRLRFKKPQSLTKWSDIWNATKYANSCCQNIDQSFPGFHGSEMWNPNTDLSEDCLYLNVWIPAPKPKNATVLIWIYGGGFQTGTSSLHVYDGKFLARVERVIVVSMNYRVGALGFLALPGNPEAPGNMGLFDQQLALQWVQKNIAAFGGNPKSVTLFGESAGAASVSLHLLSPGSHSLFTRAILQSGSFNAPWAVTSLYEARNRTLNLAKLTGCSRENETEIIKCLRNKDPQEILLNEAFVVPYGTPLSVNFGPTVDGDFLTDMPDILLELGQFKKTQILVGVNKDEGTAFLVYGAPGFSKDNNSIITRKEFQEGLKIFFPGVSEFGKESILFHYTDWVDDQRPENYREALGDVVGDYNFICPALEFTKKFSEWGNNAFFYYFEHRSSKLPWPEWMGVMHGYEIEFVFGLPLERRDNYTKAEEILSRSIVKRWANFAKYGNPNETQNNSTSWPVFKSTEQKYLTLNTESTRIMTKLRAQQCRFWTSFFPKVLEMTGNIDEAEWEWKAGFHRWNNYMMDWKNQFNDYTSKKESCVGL

Cholinesterase [4] = target: Cholinesterase (Equus caballus, UniProt P81908)
Cholinesterase (Equus caballus, UniProt P81908), sequence (P81908 whole entry): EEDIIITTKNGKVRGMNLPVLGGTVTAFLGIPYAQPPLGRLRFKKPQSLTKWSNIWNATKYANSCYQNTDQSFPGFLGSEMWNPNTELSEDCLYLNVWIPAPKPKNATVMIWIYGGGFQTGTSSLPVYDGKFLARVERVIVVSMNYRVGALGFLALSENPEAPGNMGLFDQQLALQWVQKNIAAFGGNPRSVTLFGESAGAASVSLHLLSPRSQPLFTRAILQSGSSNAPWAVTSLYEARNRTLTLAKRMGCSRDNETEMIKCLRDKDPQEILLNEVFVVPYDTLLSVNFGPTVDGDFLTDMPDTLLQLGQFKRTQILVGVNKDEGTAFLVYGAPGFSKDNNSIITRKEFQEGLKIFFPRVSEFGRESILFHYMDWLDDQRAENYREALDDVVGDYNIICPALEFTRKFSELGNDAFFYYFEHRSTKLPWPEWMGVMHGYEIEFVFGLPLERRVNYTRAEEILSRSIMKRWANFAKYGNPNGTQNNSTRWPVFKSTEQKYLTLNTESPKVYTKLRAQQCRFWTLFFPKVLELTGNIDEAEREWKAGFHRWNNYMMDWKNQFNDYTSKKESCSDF
Description: Inhibition of horse serum BuChE pre-incubated for 10 mins before addition of butyrylthiocholine iodide substrate and further incubated for 15 mins by Ellman's method

in vitro [5] = details: human, HepG2 cells
Description: Toxicity in human HepG2 cells assessed as cell viability at 100 uM by MTT assay relative to control

in vitro [6] = details: human, HepG2 cells; remark: listed apart in the source
Description: Toxicity in human HepG2 cells assessed as cell viability at 300 uM by MTT assay relative to control

in vitro [7] = details: human, HepG2 cells; remark: listed apart in the source
Description: Toxicity in human HepG2 cells assessed as cell viability at 1000 uM by MTT assay relative to control

[8] = target: Cholinesterase (Equus caballus) (UniProt P81908); assay: Potency index, ratio of IC50 for tacrine to IC50 for test compound for inhibition of horse serum BuChE
Cholinesterase (Equus caballus), sequence (P81908 whole entry): as above

[9] = target: Acetylcholinesterase (Electrophorus electricus) (UniProt O42275); assay: Potency index, ratio of IC50 for tacrine to IC50 for test compound for inhibition of Electrophorus electricus AChE
Acetylcholinesterase (Electrophorus electricus), sequence (O42275 24-633 limits assumed): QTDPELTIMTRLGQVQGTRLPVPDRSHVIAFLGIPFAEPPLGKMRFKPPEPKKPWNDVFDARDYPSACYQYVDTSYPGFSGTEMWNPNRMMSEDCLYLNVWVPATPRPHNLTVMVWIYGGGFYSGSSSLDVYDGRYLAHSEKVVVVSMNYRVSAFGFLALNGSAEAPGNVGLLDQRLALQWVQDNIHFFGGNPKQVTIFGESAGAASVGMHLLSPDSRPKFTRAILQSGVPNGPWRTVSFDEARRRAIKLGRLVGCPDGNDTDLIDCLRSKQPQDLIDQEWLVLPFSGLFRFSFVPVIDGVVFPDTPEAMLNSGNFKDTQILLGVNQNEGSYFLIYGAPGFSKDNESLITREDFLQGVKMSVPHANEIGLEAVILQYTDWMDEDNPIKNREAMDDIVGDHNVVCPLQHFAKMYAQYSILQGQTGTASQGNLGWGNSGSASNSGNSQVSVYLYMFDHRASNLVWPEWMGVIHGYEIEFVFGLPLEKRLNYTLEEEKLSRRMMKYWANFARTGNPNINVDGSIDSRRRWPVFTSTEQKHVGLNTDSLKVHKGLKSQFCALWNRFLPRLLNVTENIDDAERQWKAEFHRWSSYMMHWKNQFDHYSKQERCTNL

[10] = Effective permeability at 100 uM after 3 to 6 hrs by PAMPA assay; type: ADME; details: time 3-6 hrs, read-out: Peff
[11] = target: T3, Nuclear factor erythroid 2-related factor 2 (Homo sapiens) (UniProt Q16236); assay: Activation of NRF2 in human MCF-7/AREc32 cells at 3 uM incubated for 24 hrs by luciferase reporter gene assay; type: cell-based; details: MCF7, filed as activator
T3 sequence (whole entry): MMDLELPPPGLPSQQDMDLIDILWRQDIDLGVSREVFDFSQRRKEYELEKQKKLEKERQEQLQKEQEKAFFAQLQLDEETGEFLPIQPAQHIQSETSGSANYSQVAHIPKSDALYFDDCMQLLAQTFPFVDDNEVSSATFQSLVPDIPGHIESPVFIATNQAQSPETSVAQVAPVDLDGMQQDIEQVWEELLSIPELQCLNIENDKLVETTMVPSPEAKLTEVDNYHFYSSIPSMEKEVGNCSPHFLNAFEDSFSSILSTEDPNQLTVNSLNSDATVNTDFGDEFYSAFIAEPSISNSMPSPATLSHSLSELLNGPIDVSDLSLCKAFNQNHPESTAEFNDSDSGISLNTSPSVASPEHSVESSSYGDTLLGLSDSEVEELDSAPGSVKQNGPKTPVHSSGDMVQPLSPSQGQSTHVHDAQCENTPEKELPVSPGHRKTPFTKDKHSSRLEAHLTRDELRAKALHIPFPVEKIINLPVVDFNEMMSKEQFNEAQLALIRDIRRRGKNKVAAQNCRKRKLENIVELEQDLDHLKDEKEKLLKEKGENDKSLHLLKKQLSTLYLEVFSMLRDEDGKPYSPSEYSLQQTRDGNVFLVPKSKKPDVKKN

[12] = target: T3, Nuclear factor erythroid 2-related factor 2 (Homo sapiens); assay: Activation of NRF2 in human MCF-7/AREc32 cells at 10 to 30 uM incubated for 24 hrs by luciferase reporter gene assay; type: cell-based; details: MCF7, filed as activator, dose 10-30 µM
[13] = target: T3, Nuclear factor erythroid 2-related factor 2 (Homo sapiens); assay: Activation of NRF2 in human MCF-7/AREc32 cells assessed as concentration required to double Nrf2 transcriptional pathway by measuring specific luciferase reporter activity incubated for 24 hrs by luciferase reporter gene assay; type: cell-based; details: MCF7, filed as activator
SH-SY5Y [14] = assay: Neuroprotection in human SH-SY5Y cells assessed as reduction in beta-amyloid peptide (1-40)-induced cell death at 1 uM incubated for 24 hrs by MTT assay; type: functional; parameters: scale not given: the % may be the effect or the level left
SH-SY5Y [15] = assay: Neuroprotection in human SH-SY5Y cells assessed as reduction in beta-amyloid peptide (1-40)-induced cell death at 3 uM incubated for 24 hrs by MTT assay; type: functional; parameters: scale not given: the % may be the effect or the level left
SH-SY5Y [16] = assay: Neuroprotection in human SH-SY5Y cells assessed as reduction in beta-amyloid peptide (1-42)-induced cell death at 3 uM incubated for 24 hrs by MTT assay; type: functional; parameters: scale not given: the % may be the effect or the level left
SH-SY5Y [17] = assay: Neuroprotection in human SH-SY5Y cells assessed as reduction in beta-amyloid peptide (1-42)-induced cell death at 1 uM incubated for 24 hrs by MTT assay; type: functional; parameters: scale not given: the % may be the effect or the level left
SH-SY5Y [18] = assay: Neuroprotection in human SH-SY5Y cells assessed as reduction in H2O2-induced cell death at 1 uM incubated for 24 hrs by MTT assay; type: functional; parameters: scale not given: the % may be the effect or the level left
SH-SY5Y [19] = assay: Neuroprotection in human SH-SY5Y cells assessed as reduction in H2O2-induced cell death at 3 uM incubated for 24 hrs by MTT assay; type: functional
SH-SY5Y [20] = assay: Neuroprotection in human SH-SY5Y cells assessed as reduction in Rotenone/Oligomycin A -induced cell death at 1 uM incubated for 24 hrs by MTT assay; type: functional; parameters: scale not given: the % may be the effect or the level left
SH-SY5Y [21] = assay: Neuroprotection in human SH-SY5Y cells assessed as reduction in Rotenone/Oligomycin A -induced cell death at 3 uM incubated for 24 hrs by MTT assay; type: functional; parameters: scale not given: the % may be the effect or the level left
[22] = Antioxidant activity assessed as decrease in peak intensity of hydroxyl radicals at 100 uM by N-oxide self-spin assay relative to control; type: functional; parameters: scale not given: the % may be the effect or the level left
Acetylcholinesterase [23] = target: T1, Acetylcholinesterase; assay: Mixed type inhibition of AChE in human erythrocyte hemo-lyzates using acetylthiocholine iodide substrate by Ellman's method based Lineweaver-Burk plot analysis; type: tissue-based
Cholinesterase [24] = target: T2, Cholinesterase; assay: Competitive type inhibition of BuChE in human erythrocyte hemo-lyzates using […] substrate by Ellman's method based Lineweaver-Burk plot analysis; type: tissue-based
[25] = Ratio of antioxidant activity of melatonin to antioxidant activity of test compound assessed as AAPH radical scavenging activity incubated for 15 mins by ORAC-FL method relative to Trolox; type: functional
[26] = Ratio of antioxidant activity of FA to antioxidant activity of test compound assessed as AAPH radical scavenging activity incubated for 15 mins by ORAC-FL method relative to Trolox; type: functional
[27] = Ratio of antioxidant activity of LA to antioxidant activity of test compound assessed as AAPH radical scavenging activity incubated for 15 mins by ORAC-FL method relative to Trolox; type: functional
Acetylcholinesterase [28] = target: T1, Acetylcholinesterase; assay: Potency index, ratio of IC50 for tacrine to IC50 for test compound for inhibition of AChE in human erythrocyte hemo-lyzates pre-incubated for 5 mins before addition of acetylthiocholine iodide substrate by Ellman's method; type: tissue-based
Cholinesterase [29] = target: T2, Cholinesterase; assay: Potency index, ratio of IC50 for tacrine to IC50 for test compound for inhibition of BuChE in human erythrocyte hemo-lyzates pre-incubated for 5 mins before addition of butyrylthiocholine iodide substrate by Ellman's method; type: tissue-based

Acetylcholinesterase (Electrophorus electricus, UniProt O42275), sequence (O42275 whole entry): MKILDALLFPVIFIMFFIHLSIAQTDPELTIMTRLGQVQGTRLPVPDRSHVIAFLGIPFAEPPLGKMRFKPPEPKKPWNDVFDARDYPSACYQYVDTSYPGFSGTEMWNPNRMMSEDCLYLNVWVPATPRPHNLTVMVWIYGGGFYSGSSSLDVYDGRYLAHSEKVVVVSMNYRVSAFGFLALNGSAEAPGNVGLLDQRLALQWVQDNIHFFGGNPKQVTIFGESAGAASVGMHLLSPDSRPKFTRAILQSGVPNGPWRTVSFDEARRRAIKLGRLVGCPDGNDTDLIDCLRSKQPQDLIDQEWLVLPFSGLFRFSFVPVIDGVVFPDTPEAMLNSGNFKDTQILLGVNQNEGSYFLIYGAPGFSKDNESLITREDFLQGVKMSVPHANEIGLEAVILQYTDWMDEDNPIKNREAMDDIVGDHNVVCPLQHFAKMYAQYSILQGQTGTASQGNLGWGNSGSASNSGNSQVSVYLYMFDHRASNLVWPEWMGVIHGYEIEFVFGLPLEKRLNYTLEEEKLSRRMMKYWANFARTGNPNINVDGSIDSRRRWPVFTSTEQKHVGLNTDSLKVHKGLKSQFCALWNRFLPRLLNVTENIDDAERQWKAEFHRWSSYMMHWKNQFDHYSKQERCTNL

| SMILES | IC50 (Acetylcholinesterase [1]) | IC50 (Acetylcholinesterase [2]) | IC50 (Cholinesterase [3]) | IC50 (Cholinesterase [4]) | viability at 100 µM (in vitro [5]) | viability at 300 µM (in vitro [6]) | viability at 1000 µM (in vitro [7]) | Papp at 100 µM [10] | CD [13] | Activity (SH-SY5Y [14]) | Activity (SH-SY5Y [15]) | Activity (SH-SY5Y [16]) | Activity (SH-SY5Y [17]) | Activity (SH-SY5Y [18]) | Activity (SH-SY5Y [19]) | Activity (SH-SY5Y [20]) | Activity (SH-SY5Y [21]) | other results |
| --- | --- | --- | --- | --- | --- | --- | --- | --- | --- | --- | --- | --- | --- | --- | --- | --- | --- | --- |
| COc1ccc2nc3c(c(NCCCCCCN(CC(=O)NCCc4c[nH]c5ccc(OC)cc45)C(=O)CCCC[C@@H]4CCSS4)c2c1)CCCC3 | 16 nM | > 10000 nM | 1880 nM | 3.92 nM | 68.7% | 46.4% | 44.8% | – | – | – | – | – | – | – | – | – | – | – |
| COc1ccc2[nH]cc(CCNC(=O)CN(CCCCCCCCNc3c4c(nc5ccccc35)CCCC4)C(=O)CCCC[C@@H]3CCSS3)c2c1 | 3.62 nM | 180 nM | 211 nM | 1.25 nM | 86.2% | 58.9% | 48.8% | 6.9 ×10⁻⁶ cm/s | – | – | – | – | – | – | – | – | – | Ratio IC50 [8]: 4; Ratio IC50 [9]: 12.2 |
| CC(C)(C)c1cc(O)ccc1O | – | – | – | – | – | – | – | – | 1.68 µM | – | – | – | – | – | – | – | – | Activity [11]: Active; Activity [12]: Active |
| COc1ccc2nc3c(c(NCCCCCCCCN(CC(=O)NCCc4c[nH]c5ccc(OC)cc45)C(=O)/C=C/c4ccc(O)c(OC)c4)c2c1)CCCC3 | 29.7 nM | > 10000 nM | 336 nM | 12 nM | 61% | 56% | 54.4% | 1.8 ×10⁻⁶ cm/s | 5.99 µM | 56.3% | 35.1% | 78.9% | 28% | 35.9% | inactive | 59.6% | 48% | Activity [11]: Active; Activity [12]: Active |
| COc1ccc2nc3c(c(NCCCCCCCCN(CC(=O)NCCc4c[nH]c5ccc(OC)cc45)C(=O)CCCC[C@@H]4CCSS4)c2c1)CCCC3 | 14.8 nM | > 10000 nM | 1730 nM | 8.22 nM | 86.2% | 77.8% | 44.9% | – | – | – | – | – | – | – | – | – | – | – |
| COc1ccc2nc3c(c(NCCCCCCN(CC(=O)NCCc4c[nH]c5ccc(OC)cc45)C(=O)/C=C/c4ccc(O)c(OC)c4)c2c1)CCCC3 | 17.8 nM | > 10000 nM | 358 nM | 2.97 nM | 70.3% | 67.6% | 56.5% | 2.2 ×10⁻⁶ cm/s | 10.9 µM | 12% | inactive | 50.2% | 85.1% | 22.9% | 42.8% | 39.2% | 29.2% | – |
| COC(=O)/C=C/c1ccc(O)c(OC)c1 | – | – | – | – | – | – | – | – | – | 27.8% | 53.9% | inactive | 40.7% | 51.1% | 56.9% | 23.8% | 21.3% | – |
| CC(=O)SCCC(=O)NCCCCCCNc1c2c(nc3cc(Cl)ccc13)CCCC2 | – | – | – | – | – | – | – | – | – | – | – | – | – | – | – | – | – | Activity [22]: 80.3% |
| COc1ccc2nc3c(c(NCCCCCCCN(CC(=O)NCCc4c[nH]c5ccc(OC)cc45)C(=O)/C=C/c4ccc(O)c(OC)c4)c2c1)CCCC3 | 8.37 nM | 1290 nM | 234 nM | 2.91 nM | 84.7% | 69.9% | 68.7% | 4.2 ×10⁻⁶ cm/s | 6.31 µM | 70.6% | 56.7% | 57.4% | 81.4% | 37.6% | 30.9% | 33.7% | 41.7% | inhibition (Acetylcholinesterase [23]): Active; inhibition (Cholinesterase [24]): Active; Ratio [25]: 3.96; Ratio [26]: 2.43; Ratio [27]: 38; Activity [11]: Active; Activity [12]: Active |
| COc1ccc2[nH]cc(CCNC(=O)CN(CCCCCCCCNc3c4c(nc5ccccc35)CCCC4)C(=O)/C=C/c3ccc(O)c(OC)c3)c2c1 | 13.9 nM | 43.7 nM | 23.5 nM | 2.26 nM | 53.3% | 51.3% | 49.7% | 5.8 ×10⁻⁶ cm/s | 15.7 µM | 21.5% | 66.3% | 5.3% | 34.5% | 35.4% | 51.3% | 44.8% | 59.4% | Ratio IC50 (Acetylcholinesterase [28]): 6.91; Ratio IC50 (Cholinesterase [29]): 6.91; inhibition (Acetylcholinesterase [23]): Active; inhibition (Cholinesterase [24]): Active |
| COc1ccc2nc3c(c(NCCCCCCCN(CC(=O)NCCc4c[nH]c5ccc(OC)cc45)C(=O)CCCC[C@@H]4CCSS4)c2c1)CCCC3 | 7.56 nM | > 10000 nM | 2650 nM | 5.38 nM | 62.8% | 57.7% | 48.9% | – | – | – | – | – | – | – | – | – | – | – |
